Paper PMC12478189, “Structurally diverse viral inhibitors converge on a shared mechanism to stall the antigen transporter TAP” (Proceedings of the National Academy of Sciences of the …, 2025)

Target: T1, TAP/hUS6 complex (Homo sapiens, UniProt Q03518+Q03519)
T1 construct: gene TAP1; TAP1 C-terminal SpyCatcher, TAP2, hUS6 with SpyTag at its cytoplasmic terminus (covalent tether), GFP tag cleaved; HEK293S GnTI-; in GDN; hUS6 residues 102-136 resolved; with Unique short US6 glycoprotein
Test: cryo-EM structure of the complex
Assay type: binding
Details: pH 6.5

T1 sequence (P14334 20-183): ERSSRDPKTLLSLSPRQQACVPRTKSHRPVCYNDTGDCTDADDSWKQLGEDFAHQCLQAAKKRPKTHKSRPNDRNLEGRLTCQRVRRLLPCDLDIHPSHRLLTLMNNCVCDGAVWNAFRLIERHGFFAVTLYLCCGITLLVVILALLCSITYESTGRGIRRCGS
T1 sequence (Q03518 whole entry, the tested form may be a part): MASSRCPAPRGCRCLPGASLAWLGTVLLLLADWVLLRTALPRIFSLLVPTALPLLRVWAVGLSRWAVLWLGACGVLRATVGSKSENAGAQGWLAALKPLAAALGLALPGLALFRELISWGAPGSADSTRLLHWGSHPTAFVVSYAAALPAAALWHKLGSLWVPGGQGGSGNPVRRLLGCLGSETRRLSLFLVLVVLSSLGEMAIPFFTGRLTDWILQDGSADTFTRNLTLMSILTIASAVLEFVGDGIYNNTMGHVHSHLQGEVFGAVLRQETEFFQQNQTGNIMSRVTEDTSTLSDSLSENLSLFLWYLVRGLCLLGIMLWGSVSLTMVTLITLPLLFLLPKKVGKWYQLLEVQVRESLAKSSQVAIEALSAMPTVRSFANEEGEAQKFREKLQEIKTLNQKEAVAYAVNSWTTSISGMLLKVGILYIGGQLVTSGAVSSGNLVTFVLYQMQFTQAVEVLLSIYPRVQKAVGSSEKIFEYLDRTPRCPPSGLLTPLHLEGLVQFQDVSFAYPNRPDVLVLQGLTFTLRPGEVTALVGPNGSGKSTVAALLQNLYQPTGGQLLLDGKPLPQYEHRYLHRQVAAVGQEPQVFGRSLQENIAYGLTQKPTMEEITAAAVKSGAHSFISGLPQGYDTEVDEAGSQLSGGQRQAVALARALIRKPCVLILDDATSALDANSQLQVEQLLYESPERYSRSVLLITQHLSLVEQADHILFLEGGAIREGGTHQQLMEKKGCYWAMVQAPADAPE
T1 sequence (Q03519 whole entry, the tested form may be a part): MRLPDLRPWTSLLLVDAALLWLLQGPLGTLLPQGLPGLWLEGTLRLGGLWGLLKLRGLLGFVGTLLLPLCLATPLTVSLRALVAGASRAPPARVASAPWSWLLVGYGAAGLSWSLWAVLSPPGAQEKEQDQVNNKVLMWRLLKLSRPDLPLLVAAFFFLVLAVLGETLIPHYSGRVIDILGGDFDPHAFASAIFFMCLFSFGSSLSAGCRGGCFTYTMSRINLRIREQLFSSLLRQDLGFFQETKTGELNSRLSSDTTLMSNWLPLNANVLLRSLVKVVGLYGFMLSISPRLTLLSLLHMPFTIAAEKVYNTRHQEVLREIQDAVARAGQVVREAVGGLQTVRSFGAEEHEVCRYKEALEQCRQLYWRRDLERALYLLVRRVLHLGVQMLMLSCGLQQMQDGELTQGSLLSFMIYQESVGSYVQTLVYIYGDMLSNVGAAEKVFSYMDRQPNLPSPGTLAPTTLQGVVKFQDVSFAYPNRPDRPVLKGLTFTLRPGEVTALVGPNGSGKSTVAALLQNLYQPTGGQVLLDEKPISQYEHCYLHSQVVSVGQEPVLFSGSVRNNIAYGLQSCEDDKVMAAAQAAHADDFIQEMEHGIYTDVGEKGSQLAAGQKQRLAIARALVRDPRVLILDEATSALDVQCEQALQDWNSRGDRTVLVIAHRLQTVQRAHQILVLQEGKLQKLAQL

| Structure (SMILES) | cryo-EM structure of the complex (10 mM ATP added, ADP at the consensus NBD site, posthydrolytic state) | cryo-EM structure of the complex (10 mM ATP, ATP at the degenerate NBD site, outward-facing, NBD-dimerized) |
| --- | --- | --- |
| Nc1ncnc2c1ncn2[C@@H]1O[C@H](COP(=O)(O)OP(=O)(O)O)[C@@H](O)[C@H]1O [ADP] | densities corresponding to ATP bound at the degenerate site and ADP at the consensus site | – |
| Nc1ncnc2c1ncn2[C@@H]1O[C@H](COP(=O)(O)OP(=O)(O)OP(=O)(O)O)[C@@H](O)[C@H]1O [ATP] | – | densities corresponding to ATP bound at the degenerate site and ADP at the consensus site |
